Results reported in US20070254882A1, “Sulfamide Derivatives and Pharmaceutical Composition for Upregulation of Lipid Metabolism Comprising Same” (CRYSTAL GENOMICS, INC., priority 2004, published 2007).

What follows are compounds tested against T1, human PPAR α (Homo sapiens, UniProt Q07869) (assay: Exogeneous PPAR α agonist assay (GAL4 DNA binding domain/PPAR α ligand binding domain, luciferase) in HepG2 cells). Settings: 25 μM compound, 48 hours, luciferase activity increase relative to the control.
T1 construct: expressed in transfected cells; host or cells: HepG2 (ATCC HB-8065) or 293T cells (ATCC CRL-1573)
T1 sequence (Q07869 239-466 limits assumed): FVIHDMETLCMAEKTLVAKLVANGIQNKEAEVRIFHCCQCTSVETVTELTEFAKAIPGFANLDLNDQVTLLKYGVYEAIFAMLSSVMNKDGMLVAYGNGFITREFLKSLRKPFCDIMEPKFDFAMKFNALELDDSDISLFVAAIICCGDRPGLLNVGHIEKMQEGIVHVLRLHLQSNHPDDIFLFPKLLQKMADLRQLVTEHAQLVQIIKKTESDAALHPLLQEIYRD
Type: cell-based
Description: (§1) Step 1) Exogeneous PPAR α Agonist Assay
(§2) Cross-activation assay of the compounds of Examples 1 to 134 against human PPAR α was carried out using a DNA construct of PPAR α including its ligand binding domain and GAL4 DNA binding domain (Sher et al., Biochemistry 32, 5598-5604, 1993) to analyze whether any of the compounds binds to the ligand binding domain of PPAR α expressed by the construct to affect the PPAR α activity. When the GAL4 DNA binding domainm which is fused with PPAR α ligand binding domain, binds to UAS (upstream activation sequence) of firefly-luciferase, the luciferase is expressed. Therefore, the effect of each of the compounds of Examples on PPAR α activation can be evaluated by analyzing the activation of luciferase.
(§3) Specifically, 2×10^4 of HepG2 (ATCC HB-8065) or 293T cells (ATCC CRL-1573) were aliquotted into each well of a 96-well plate and cultured for overnight at 37° C. in a CO2 incubator (culture condition: DMEM, 10% FBS and 1% antibiotics).
(§4) The transformation of PPAR α DNA was traced as follows. First, a mixture of the following ingredients in amounts per well; Solution A (Promega) containing 50 ng of full length human PPAR α DNA, 50 ng of firefly-luciferase construct, 5 ng of Renilla-luciferase construct, 1.0 μl of PLUS™ reagent, and 8.3 μl of a serum-free medium containing no antibiotics; was prepared and kept at room temperature for 15 min. Solution B, which contained 0.5 μl of Lipofectamine™ reagent and 9.5 μl of serum-free medium without antibiotics per well, and Solution C, which contained 50 μl of serum-free medium per well), were prepared. Solutions A, B and C were mixed together to prepare lipofectamin-DNA complex, and the mixture was kept at room temperature for 15 min. Single layer of cells on each well of a 96-well plate were washed with serum-free DMEM, 70 μl of lipofectamine-DNA complex prepared above was added thereto, the plate was incubated at 37° C. in a 5% CO2 incubator for 3 hours to transform the cells, and […] of a diluted solution of each of the compounds of Examples 1 to 134 per well was added to each well to a final concentration 25 μM, and incubated at 37° C. in a CO2 incubator for 48 hours. Then, the medium was removed, 50 μl of passive lysis buffer (Promega) was added thereto, and the plate was shook at room temperature for 20 min to lysis cells. 40 μl of Luciferase Assay reagent of Dual Luciferase Kit […] per 20 μl of cell lysis buffer was added to the plate, followed by reacting at 20° C. for 8 seconds, and 40 μl of Stop & Glo reagent (Promega) as a stop solution was added thereto to quench the reaction. The luminescence intensities of F-luciferase and R-luciferase were measured with MicroLumat Plus (Berthord Technology).
For `CCN(CC)S(=O)(=O)N(CC(=O)O)C(C)c1cccc(OCc2nc(-c3ccc(C)cc3)oc2C)c1` (stereo not shown) [Example 128, [N—(N,N-diethylamino)sulfonyl-N-[1-[[3-(5-methyl-2-p-tolyloxazol-4-yl)methoxy]phenyl]ethyl]amino]acetic acid], the “Activity at 25 μM Step 1 HepG2 cell” value was 25.

Each compound was assayed against T1, human PPAR α (assay: Exogeneous PPAR α agonist assay (GAL4 DNA binding domain/PPAR α ligand binding domain, luciferase) in 293T cells). Settings: 25 μM compound, 48 hours, luciferase activity increase relative to the control.
Type: cell-based
Set-up: scale not given here
Description: as §1, §2, §3, §4
With `CCN(CC)S(=O)(=O)N(CC(=O)O)C(C)c1cccc(OCc2nc(-c3ccc(C)cc3)oc2C)c1` (stereo not shown) [Example 128, [N—(N,N-diethylamino)sulfonyl-N-[1-[[3-(5-methyl-2-p-tolyloxazol-4-yl)methoxy]phenyl]ethyl]amino]acetic acid] the “Activity at 25 μM Step 1 293T cell” value was 2.
`Cc1ccc(-c2nc(COc3cccc(CN(CC(=O)O)S(=O)(=O)N4CCc5ccccc54)c3)c(C)o2)cc1` [Example 31, [N-(indolinyl)sulfonyl-N-[3-[[2-(4-methylphenyl)-5-methyloxazol-4-yl]methoxy]benzyl]amino]acetic acid] was tested, and the “Activity at 25 μM Step 1 293T cell” value was 3.
For `Cc1oc(-c2ccccc2)nc1COc1ccc(CN(CC(=O)O)S(=O)(=O)N2CCc3ccccc32)cc1` [Example 53, [N-(indolinyl)sulfonyl-N-[4-[(2-phenyl-5-methyloxazol-4-yl)methoxy]benzyl]amino]acetic acid], the “Activity at 25 μM Step 1 293T cell” value was 2.
With `Cc1oc(-c2ccccc2)nc1CCOc1ccc(CN(CC(=O)O)S(=O)(=O)N(C)c2ccccc2)cc1` [Example 105, [N—[(N-methyl-N-phenyl)amino]sulfonyl-N-[4-[2-(2-phenyl-5-methyloxazol-4-yl)ethoxy]benzyl]amino]acetic acid] the “Activity at 25 μM Step 1 293T cell” value was 2.
With `Cc1oc(-c2cccs2)nc1CCOc1cccc(CN(CC(=O)O)S(=O)(=O)N(C)C)c1` [Example 72, [N—(N,N-dimethylamino)sulfonyl-N-[3-[2-[2-(thiophen-2-yl)-5-methyloxazol-4-yl]ethoxy]benzyl]amino]acetic acid] the “Activity at 25 μM Step 1 293T cell” value was 2.
In the case of `Cc1oc(-c2ccc(C(F)(F)F)cc2)nc1COc1ccc(CN(CC(=O)O)S(=O)(=O)N2CCc3ccccc32)cc1` [Example 55, [N-(indolinyl)sulfonyl-N-[4-[[2-(4-trifluoromethylphenyl)-5-methyloxazol-4-yl]methoxy]benzyl]amino]acetic acid], the “Activity at 25 μM Step 1 293T cell” value is reported as 2.
`Cc1ccc(-c2nc(CCOc3cccc(CN(CC(=O)O)S(=O)(=O)N4CCN(C)CC4)c3)c(C)o2)cc1` [Example 88, [N-(4-methyl-1-piperazinyl)sulfonyl-N-[3-[2-[2-(4-methylphenyl)-5-methyloxazol-4-yl]ethoxy]benzyl]amino]acetic acid] was tested, and the “Activity at 25 μM Step 1 293T cell” value was 1.
`Cc1nc(-c2ccc(C(F)(F)F)cc2)oc1COc1cccc(CN(CC(=O)O)S(=O)(=O)N2CCCC2)c1` [Example 26, [N-(pyrrolidinyl)sulfonyl-N-[3-[[2-(4-trifluoromethylphenyl)-4-methyloxazol-5-yl]methoxy]benzyl]amino]acetic acid] was tested, and the “Activity at 25 μM Step 1 293T cell” value was 2.
With `Cc1oc(-c2ccccc2)nc1CCOc1cccc(CN(CC(=O)O)S(=O)(=O)N2CCCc3ccccc32)c1` [Example 94, [N-(1,2,3,4-tetrahydroquinolinyl)sulfonyl-N-[3-[2-(2-phenyl-5-methyloxazol-4-yl)ethoxy]benzyl]amino]acetic acid] the “Activity at 25 μM Step 1 293T cell” value was 2.
For `Cc1nc(-c2ccc(C(F)(F)F)cc2)oc1COc1cccc(CN(CC(=O)O)S(=O)(=O)N2CCOCC2)c1` [Example 29, [N-(morpholinyl)sulfonyl-N-[3-[[2-(4-trifluoromethylphenyl)-4-methyloxazol-5-yl]methoxy]benzyl]amino]acetic acid], the “Activity at 25 μM Step 1 293T cell” value was 2.
With `Cc1ccc(-c2nc(COc3ccc(CN(CC(=O)O)S(=O)(=O)N4CCc5ccccc54)cc3)c(C)o2)cc1` [Example 54, [N-(indolinyl)sulfonyl-N-[4-[[2-(4-methylphenyl)-5-methyloxazol-4-yl]methoxy]benzyl]amino]acetic acid] the “Activity at 25 μM Step 1 293T cell” value was 2.
For `Cc1oc(-c2ccc(C(F)(F)F)cc2)nc1CCOc1cccc(CN(CC(=O)O)S(=O)(=O)NC(C)(C)C)c1` [Example 66, [N—(N-t-butylamino)sulfonyl-N-[3-[2-[2-(4-trifluoromethylphenyl)-5-methyloxazol-4-yl]ethoxy]benzyl]amino]acetic acid], the “Activity at 25 μM Step 1 293T cell” value was 1.
With `Cc1ccc(-c2nc(COc3ccc(CN(CC(=O)O)S(=O)(=O)N4CCCC4)cc3)c(C)o2)cc1` [Example 42, [N-(pyrrolidinyl)sulfonyl-N-[4-[[2-(4-methylphenyl)-5-methyloxazol-4-yl]methoxy]benzyl]amino]acetic acid] the “Activity at 25 μM Step 1 293T cell” value was 3.
In the case of `Cc1oc(-c2ccc(C(F)(F)F)cc2)nc1COc1cccc(CN(CC(=O)O)S(=O)(=O)N2CCCC2)c1` [Example 25, [N-(pyrrolidinyl)sulfonyl-N-[3-[[2-(4-trifluoromethylphenyl)-5-methyloxazol-4-yl]methoxy]benzyl]amino]acetic acid], the “Activity at 25 μM Step 1 293T cell” value is reported as 2.
For `Cc1ccc(-c2nc(COc3ccc(CN(CC(=O)O)S(=O)(=O)N4CCCc5ccccc54)cc3)c(C)o2)cc1` [Example 58, [N-(1,2,3,4-tetraquinolinyl)sulfonyl-N-[4-[[2-(4-methylphenyl)-5-methyloxazol-4-yl]methoxy]benzyl]amino]acetic acid], the “Activity at 25 μM Step 1 293T cell” value was 4.
In the case of `Cc1ccc(-c2nc(CCOc3ccc(CN(CC(=O)O)S(=O)(=O)N4CCc5ccccc54)cc3)c(C)o2)cc1` [Example 117, [N-(indolinyl)sulfonyl-N-[4-[2-[2-(4-methylphenyl)-5-methyloxazol-4-yl]ethoxy]benzyl]amino]acetic acid], the “Activity at 25 μM Step 1 293T cell” value is reported as 3.
In the case of `Cc1oc(-c2ccccc2)nc1COc1cccc(CN(CC(=O)O)S(=O)(=O)N(C)C)c1` [Example 3, [N—[(N,N-dimethylamino)sulfonyl]-N-[3-[(2-phenyl-5-methyloxazol-4-yl)methoxy]benzyl]amino]acetic acid], the “Activity at 25 μM Step 1 293T cell” value is reported as 2.
With `Cc1ccc(-c2nc(CCOc3cccc(CN(CC(=O)O)S(=O)(=O)N4CCCC4)c3)c(C)o2)cc1` [Example 84, [N-(pyrrolidinyl)sulfonyl-N-[3-[2-[2-(4-methylphenyl)-5-methyloxazol-4-yl]ethoxy]benzyl]amino]acetic acid] the “Activity at 25 μM Step 1 293T cell” value was 1.
In the case of `Cc1oc(-c2ccccc2)nc1COc1cccc(CN(CC(=O)O)S(=O)(=O)N(C)c2ccc(Cl)cc2)c1` [Example 18, [N—[[N-methyl-N-(4-chlorophenyl)]amino]sulfonyl-N-[3-[(2-phenyl-5-methyloxazol-4-yl)methoxy]benzyl]amino]acetic acid], the “Activity at 25 μM Step 1 293T cell” value is reported as 2.
With `Cc1ccc(-c2nc(CCOc3ccc(CN(CC(=O)O)S(=O)(=O)N(C)c4ccccc4)cc3)c(C)o2)cc1` [Example 106, [N—[(N-methyl-N-phenyl)amino]sulfonyl-N-[4-[2-[2-(4-methylphenyl)-5-methyloxazol-4-yl]ethoxy]benzyl]amino]acetic acid] the “Activity at 25 μM Step 1 293T cell” value was 2.
With `Cc1oc(-c2ccccc2)nc1CCOc1ccc(CN(CC(=O)O)S(=O)(=O)N(C)c2ccc(Cl)cc2)cc1` [Example 109, [N—[[N-methyl-N-(4-chlorophenyl)]amino]sulfonyl-N-[4-[2-(2-phenyl-5-methyloxazol-4-yl)ethoxy]benzyl]amino]acetic acid] the “Activity at 25 μM Step 1 293T cell” value was 3.
